Data as given in patent publication US9573913B2, “Cathepsin cysteine protease inhibitors” (Merck Sharp & Dohme Corp., priority 2013, dated 2017).

How the values were obtained:
human cathepsin K = human cathepsin K (UniProt P43236); assay: Cathepsin K Assay (hrbCat K); format: biochemical; conditions: Z-Leu-Arg-AMC substrate, pH 5.5, 15 min preincubation; read-out: hrbCat K (IP (nM))
Method in brief: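 Human cathepsin K (0.4 nM) was preincubated 15 min at room temperature with compound in 50 mM MES pH 5.5, 2.5 mM EDTA, 2.5 mM DTT and 10% DMSO. Inhibition was fitted to a dose-response model.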

human cathepsin F = molecular target: T1, human cathepsin F (Homo sapiens, UniProt Q9UBX1); assay: Cathepsin F assay (hCat F); format: biochemical; conditions: Z-Phe-Arg-AMC substrate, pH 5.5, 15 min preincubation; read-out: hCat F (IP (nM))
T1 sequence (Q9UBX1 271-484): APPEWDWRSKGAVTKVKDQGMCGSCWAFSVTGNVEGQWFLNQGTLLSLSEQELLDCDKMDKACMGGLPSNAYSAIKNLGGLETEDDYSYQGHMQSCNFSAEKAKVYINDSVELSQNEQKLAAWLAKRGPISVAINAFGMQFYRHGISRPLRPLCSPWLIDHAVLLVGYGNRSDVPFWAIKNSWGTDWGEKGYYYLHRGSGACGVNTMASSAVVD
Method in brief: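 AMC release from Z-Phe-Arg-AMC, added at 8 μM, was monitored fluorometrically (360/460 nm) for 20 min after 10 nM enzyme and compound had been preincubated 15 min at room temperature. Buffer: MES 50 mM pH 5.5, EDTA and DTT 2.5 mM each, 10% DMSO. Compound DMSO dilutions spanned 500–0.025 μM (3-fold). Dose-response fitting gave % inhibition.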

IC50 (human cathepsin K)	IC50 (human cathepsin F)	SMILES
11.4 nM	9900 nM	Cc1nc([C@@H]2CC[C@H](F)C[C@H]2C(=O)N[C@H](C#N)C(C)C)c(-c2ccc(N3CCS(=O)(=O)CC3)cc2)s1 [Example 210, (1R,2R,5S)-N-((S)-1-cyano-2-methylpropyl)-2-(5-(4-(1,1-dioxidothiomorpho-lino)phenyl)-2-methylthiazol-4-yl)-5-fluorocyclohexane-carboxamide]
4.2 nM	6700 nM	C[C@@H](C#N)NC(=O)[C@@H]1C[C@@H](F)CC[C@H]1c1nc(C2CC(F)(F)C2)sc1-c1ccc(N2CCS(=O)(=O)CC2)cc1 [Example 212, (1R,2R,5S)-N-((S)-1-cyanoethyl)-2-(2-(3,3-difluorocyclobutyl)-5-(4-(1,1-dioxidothiomorpho-lino)phenyl)thiazol-4-yl)-5-fluorocyclohexane-carboxamide]
7.1 nM	2480 nM	Cc1ccc(-c2nc([C@@H]3CC[C@H](F)C[C@H]3C(=O)NC3(C#N)CC3)c(-c3ccc(N4CCOCC4)cc3)s2)nn1 [Example 216, (1R,2R,5S)-N-(1-cyanocyclopropyl)-5-fluoro-2-(2-(6-methylpyridazin-3-yl)-5-(4-morpholinophenyl)thiazol-4-yl)cyclohexane-carboxamide]
6.2 nM	2050 nM	Cc1ccc(-c2nc([C@@H]3CC[C@H](F)C[C@H]3C(=O)NC3(C#N)CC3)c(-c3ccc(N4CCC(C)(O)CC4)cc3)s2)nn1 [Example 222, (1R,2R,5S)-N-(1-cyanocyclopropyl)-5-fluoro-2-(5-(4-(4-hydroxy-4-methylpiperidin-1-yl)phenyl)-2-(6-methylpyridazin-3-yl)thiazol-4-yl)cyclohexane-carboxamide]
2.9 nM	2230 nM	Cc1ccc(-c2nc([C@@H]3CC[C@H](F)C[C@H]3C(=O)NC3(C#N)CC3)c(-c3ccc(N4CCC(S(C)(=O)=O)CC4)cc3)s2)nn1 [Example 223, (1R,2R,5S)-N-(1-cyanocyclopropyl)-5-fluoro-2-(2-(6-methylpyridazin-3-yl)-5-(4-(4-(methylsulfonyl)piperidin-1-yl)phenyl)thiazol-4-yl)cyclohexane-carboxamide]
45.5 nM	3330 nM	Cc1nc([C@@H]2CC[C@H](F)C[C@H]2C(=O)N[C@@H](C)C#N)c(-c2ccc(N3CCOCC3)cc2)s1 [Example 230, (1R,2R,5S)-N-((S)-1-cyanoethyl)-5-fluoro-2-(2-methyl-5-(4-morpholinophenyl)thiazol-4-yl)cyclohexane-carboxamide]
5 nM	≥ 10000 nM	N#CC1(NC(=O)[C@@H]2C[C@@H](F)CC[C@H]2c2nc(C3(C(F)(F)F)CC3)sc2-c2ccc(N3CCS(=O)(=O)CC3)cc2)CC1 [Example 232, (1R,2R,5S)-N-(1-cyanocyclopropyl)-2-(5-(4-(1,1-dioxidothiomorpho-lino)phenyl)-2-(1-(trifluoromethyl)cyclopropyl)thiazol-4-yl)-5-fluorocyclohexane-carboxamide]
3.5 nM	3170 nM	N#CC1(NC(=O)[C@@H]2C[C@@H](F)CC[C@H]2c2nc(CF)sc2-c2ccc(N3CCS(=O)(=O)CC3)cc2)CC1 [Example 238, (1R,2R,5S)-N-(1-cyanocyclopropyl)-2-(5-(4-(1,1-dioxidothiomorpho-lino)phenyl)-2-(fluoromethyl)thia-zol-4-yl)-5-fluorocyclohexane-carboxamide]
8.5 nM	5340 nM	Cc1nc([C@@H]2CC[C@H](F)C[C@H]2C(=O)N[C@@H](C)C#N)c(-c2ccc(N3CCC(F)(F)CC3)cc2)s1 [Example 239, (1R,2R,5S)-N-((S)-1-cyanoethyl)-2-(5-(4-(4,4-difluoropiperidin-1-yl)phenyl)-2-methylthiazol-4-yl)-5-fluorocyclohexane-carboxamide]
8 nM	7120 nM	Cc1nc([C@@H]2CC[C@H](F)C[C@H]2C(=O)NC2(C#N)CC2)c(-c2ccc(N3CCC(F)(F)CC3)cc2)s1 [Example 240, (1R,2R,5S)-N-(1-cyanocyclopropyl)-2-(5-(4-(4,4-difluoropiperidin-1-yl)phenyl)-2-methylthiazol-4-yl)-5-fluorocyclohexane-carboxamide]
34.9 nM	≥ 10000 nM	Cc1nc([C@@H]2CC[C@H](F)C[C@H]2C(=O)N[C@@H](C)C#N)c(-c2ccc(N3CCC(C)(O)CC3)cc2)s1 [Example 241, (1R,2R,5S)-N-((S)-1-cyanoethyl)-5-fluoro-2-(5-(4-(4-hydroxy-4-methylpiperidin-1-yl)phenyl)-2-methylthiazol-4-yl)cyclohexane-carboxamide]
26.3 nM	≥ 10000 nM	Cc1nc([C@@H]2CC[C@H](F)C[C@H]2C(=O)NC2(C#N)CC2)c(-c2ccc(N3CCC(C)(O)CC3)cc2)s1 [Example 242, (1R,2R,5S)-N-(1-cyanocyclopropyl)-5-fluoro-2-(5-(4-(4-hydroxy-4-methylpiperidin-1-yl)phenyl)-2-methylthiazol-4-yl)cyclohexane-carboxamide]
5.3 nM	8430 nM	Cc1nc([C@@H]2CC[C@H](F)C[C@H]2C(=O)NC2(C#N)CC2)c(-c2ccc(N3CCC(S(C)(=O)=O)CC3)cc2)s1 [Example 243, (1R,2R,5S)-N-(1-cyanocyclopropyl)-5-fluoro-2-(2-methyl-5-(4-(4-(methylsulfonyl)piperidin-1-yl)phenyl)thiazol-4-yl)cyclohexane-carboxamide]

Second part, the compound before the results:

SMILES	IC50 (human cathepsin K)	IC50 (human cathepsin F)
CC(C)[C@@H](C#N)NC(=O)[C@@H]1C[C@@H](F)CC[C@H]1c1nc(-c2cncc(F)c2)sc1-c1ccc(N2CCS(=O)(=O)CC2)cc1 [Example 209, (1R,2R,5S)-N-((S)-1-cyano-2-methylpropyl)-2-(5-(4-(1,1-dioxidothiomorpho-lino)phenyl)-2-(5-fluoropyridin-3-yl)thiazol-4-yl)-5-fluorocyclohexane-carboxamide]	1.5 nM	1000 nM
N#CC1(NC(=O)[C@@H]2CCCC[C@H]2c2nc(-c3ccc(F)cn3)sc2-c2ccc(N3CCS(=O)(=O)CC3)cc2)COC1 [Example 211, (1R,2R)-N-(3-cyanooxetan-3-yl)-2-(5-(4-(1,1-dioxidothiomorpho-lino)phenyl)-2-(5-fluoropyridin-2-yl)thiazol-4-yl)cyclohexane-carboxamide]	1.7 nM	289 nM
CC(C)[C@@H](C#N)NC(=O)[C@@H]1C[C@@H](F)CC[C@H]1c1nc(C2CC(F)(F)C2)sc1-c1ccc(N2CCS(=O)(=O)CC2)cc1 [Example 213]	7.8 nM	≥ 10000 nM
Cc1ccc(-c2nc([C@@H]3CC[C@H](F)C[C@H]3C(=O)N[C@H](C#N)C(C)C)c(-c3ccc(N4CCS(=O)(=O)CC4)cc3)s2)nn1 [Example 217, (1R,2R,5S)-N-((S)-1-cyano-2-methylpropyl)-2-(5-(4-(1,1-dioxidothiomorpho-lino)phenyl)-2-(6-methylpyridazin-3-yl)thiazol-4-yl)-5-fluorocyclohexane-carboxamide]	1.5 nM	2930 nM
C[C@@H](C#N)NC(=O)[C@@H]1C[C@@H](F)CC[C@H]1c1nc(C(F)F)sc1-c1ccc(N2CCS(=O)(=O)CC2)cc1 [Example 220, (1R,2R,5S)-N-((S)-1-cyanoethyl)-2-(2-(difluoromethyl)-5-(4-(1,1-dioxidothiomorpho-lino)phenyl)thiazol-4-yl)-5-fluorocyclohexane-carboxamide]	1.6 nM	2090 nM
CC(C)(CO)c1nc([C@@H]2CCCC[C@H]2C(=O)NC2(C#N)CC2)c(-c2ccc(N3CCS(=O)(=O)CC3)cc2)s1 [Example 224, (1R,2R)-N-(1-cyanocyclopropyl)-2-(5-(4-(1,1-dioxidothiomorpho-lino)phenyl)-2-(1-hydroxy-2-methylpropan-2-yl)thiazol-4-yl)cyclohexane-carboxamide]	3.3 nM	≥ 10000 nM
C[C@@H](C#N)NC(=O)[C@@H]1CCCC[C@H]1c1nc(C(C)(C)CO)sc1-c1ccc(N2CCS(=O)(=O)CC2)cc1 [Example 225, (1R,2R)-N-((S)-1-cyanoethyl)-2-(5-(4-(1,1-dioxidothiomorpho-lino)phenyl)-2-(1-hydroxy-2-methylpropan-2-yl)thiazol-4-yl)cyclohexane-carboxamide]	1.6 nM	1040 nM
C[C@@H](C#N)NC(=O)[C@@H]1C[C@@H](F)CC[C@H]1c1nc(C2(C(F)(F)F)CC2)sc1-c1ccc(N2CCS(=O)(=O)CC2)cc1 [Example 231, (1R,2R,5S)-N-((S)-1-cyanoethyl)-2-(5-(4-(1,1-dioxidothiomorpho-lino)phenyl)-2-(1-(trifluoromethyl)cyclopropyl)thiazol-4-yl)-5-fluorocyclohexane-carboxamide]	2.8 nM	3140 nM
C[C@@H](C#N)NC(=O)[C@@H]1C[C@@H](F)CC[C@H]1c1nc(CF)sc1-c1ccc(N2CCS(=O)(=O)CC2)cc1 [Example 237, (1R,2R,5S)-N-((S)-1-cyanoethyl)-2-(5-(4-(1,1-dioxidothiomorpho-lino)phenyl)-2-(fluoromethyl)thia-zol-4-yl)-5-fluorocyclohexane-carboxamide]	4.1 nM	6830 nM
Cc1nc([C@@H]2CC[C@H](F)C[C@H]2C(=O)N[C@@H](C)C#N)c(-c2ccc(N3CCC(S(C)(=O)=O)CC3)cc2)s1 [Example 244, (1R,2R,5S)-N-((S)-1-cyanoethyl)-5-fluoro-2-(2-methyl-5-(4-(4-(methylsulfonyl)piperidin-1-yl)phenyl)thiazol-4-yl)cyclohexane-carboxamide]	4.7 nM	7740 nM
